Laboratory results: EP1247803A2, “Indolinone compounds suitable for modulation of protein kinases” (Sugen, Inc., priority 1996, dated 1998)

Columns and labels:
[1] = target: T1, EGFR (Homo sapiens, UniProt P00533); assay: EGFR ELISA assay (in vitro kinase activity, EGFR captured from A431 cell lysate); format: biochemical; parameters: concentration or dose not given beside the values
T1 construct: Add 7 ug A431 cell lysate per well (EGFR source); endogenous in cells; host or cells: A431
Procedure, shortened: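 Receptor autophosphorylation was read by ELISA: anti-phosphotyrosine serum and an HRP-linked secondary with ABTS substrate, absorbance at 410 nm (reference 630 nm). The reaction ran 5 min with 3 µM ATP and 5 mM MnCl2 and was quenched by 20 mM EDTA. Compounds were first incubated 30 min with antibody-captured EGFR from A431 cell lysate.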

[2] = target: PDGF-R (Homo sapiens, UniProt P09619); assay: PDGF-R ELISA; format: cell-based
PDGF-R, sequence (P09619 33-1106, species assumed): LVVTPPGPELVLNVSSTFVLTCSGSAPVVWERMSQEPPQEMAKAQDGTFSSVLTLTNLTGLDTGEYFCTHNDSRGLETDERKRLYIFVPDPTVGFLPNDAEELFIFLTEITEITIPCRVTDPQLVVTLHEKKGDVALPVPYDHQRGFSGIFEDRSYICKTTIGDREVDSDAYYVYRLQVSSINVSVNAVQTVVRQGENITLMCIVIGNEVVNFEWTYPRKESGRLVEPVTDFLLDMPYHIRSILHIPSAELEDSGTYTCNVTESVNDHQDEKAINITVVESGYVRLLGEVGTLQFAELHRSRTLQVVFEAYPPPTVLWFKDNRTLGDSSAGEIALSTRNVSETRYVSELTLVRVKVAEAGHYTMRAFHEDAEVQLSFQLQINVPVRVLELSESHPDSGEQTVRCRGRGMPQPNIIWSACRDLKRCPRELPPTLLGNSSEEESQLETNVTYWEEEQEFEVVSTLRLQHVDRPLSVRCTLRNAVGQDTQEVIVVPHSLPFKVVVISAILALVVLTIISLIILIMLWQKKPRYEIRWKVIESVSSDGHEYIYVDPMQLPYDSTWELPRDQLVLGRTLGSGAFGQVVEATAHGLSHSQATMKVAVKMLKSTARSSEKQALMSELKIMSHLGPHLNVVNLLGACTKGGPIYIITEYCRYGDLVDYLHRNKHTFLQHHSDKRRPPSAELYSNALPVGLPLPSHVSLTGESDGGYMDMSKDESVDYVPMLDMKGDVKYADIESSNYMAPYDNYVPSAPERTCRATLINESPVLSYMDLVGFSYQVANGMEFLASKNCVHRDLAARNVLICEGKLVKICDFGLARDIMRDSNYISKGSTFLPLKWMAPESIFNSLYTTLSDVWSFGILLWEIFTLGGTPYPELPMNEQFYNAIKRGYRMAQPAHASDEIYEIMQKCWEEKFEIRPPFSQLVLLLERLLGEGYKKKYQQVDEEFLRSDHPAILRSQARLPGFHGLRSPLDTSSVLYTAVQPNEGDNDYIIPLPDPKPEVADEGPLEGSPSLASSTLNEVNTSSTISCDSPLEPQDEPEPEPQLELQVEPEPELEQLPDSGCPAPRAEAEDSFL
Description: A PDGF-R ELISA is described in International Patent Publication No. WO 96/40116, published December 19, 1996 by Tang et al.

T1 sequence (P00533 25-1210): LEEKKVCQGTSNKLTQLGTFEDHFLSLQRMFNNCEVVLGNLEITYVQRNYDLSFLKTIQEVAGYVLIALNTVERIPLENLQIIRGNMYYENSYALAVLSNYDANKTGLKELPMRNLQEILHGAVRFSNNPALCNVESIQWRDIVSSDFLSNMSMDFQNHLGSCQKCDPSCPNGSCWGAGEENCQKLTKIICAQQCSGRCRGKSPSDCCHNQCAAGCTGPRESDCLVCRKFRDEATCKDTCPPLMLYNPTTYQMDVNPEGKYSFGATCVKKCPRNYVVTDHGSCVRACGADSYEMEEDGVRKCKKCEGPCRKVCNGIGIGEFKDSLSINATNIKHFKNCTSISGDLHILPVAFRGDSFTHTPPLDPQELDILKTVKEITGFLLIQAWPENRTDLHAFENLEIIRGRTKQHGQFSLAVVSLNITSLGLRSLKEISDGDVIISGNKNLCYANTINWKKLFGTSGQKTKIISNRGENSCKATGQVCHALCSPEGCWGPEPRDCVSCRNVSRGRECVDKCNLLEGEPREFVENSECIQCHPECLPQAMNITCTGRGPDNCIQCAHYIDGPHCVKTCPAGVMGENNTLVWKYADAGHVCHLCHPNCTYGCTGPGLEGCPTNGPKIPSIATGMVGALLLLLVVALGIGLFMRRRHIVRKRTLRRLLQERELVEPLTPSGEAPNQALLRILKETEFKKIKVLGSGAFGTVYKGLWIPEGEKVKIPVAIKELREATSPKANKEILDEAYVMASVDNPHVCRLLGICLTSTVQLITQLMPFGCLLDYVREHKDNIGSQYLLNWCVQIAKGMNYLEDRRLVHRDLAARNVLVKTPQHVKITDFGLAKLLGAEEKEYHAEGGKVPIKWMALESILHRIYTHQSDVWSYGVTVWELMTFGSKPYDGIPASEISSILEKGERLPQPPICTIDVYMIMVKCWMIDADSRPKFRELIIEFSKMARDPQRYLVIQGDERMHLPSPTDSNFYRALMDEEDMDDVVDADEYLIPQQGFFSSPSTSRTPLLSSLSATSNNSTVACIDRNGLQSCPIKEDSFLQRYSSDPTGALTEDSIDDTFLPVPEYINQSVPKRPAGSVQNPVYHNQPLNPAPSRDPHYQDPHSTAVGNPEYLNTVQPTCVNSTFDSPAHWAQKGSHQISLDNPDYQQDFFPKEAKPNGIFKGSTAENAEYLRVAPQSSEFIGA

SMILES	Biochem EGFR %Inhibition [1] [%]	PDGF Kinase %Inhibition [2] [%]
O=C1Nc2ccc(S(=O)(=O)Nc3ccc(C(F)(F)F)cc3)cc2C1=Cc1c(Br)cnn1-c1ccc(Cl)cc1 [10725/E10]	6.1	28.4
COC(=O)Cc1c(Cl)[nH]c(C=C2C(=O)Nc3ccc(CCCl)cc32)c1C(=O)OC [10725/G09]	6.5	43.8
CNS(=O)(=O)c1ccc2c(c1)C(=Cc1c[nH]cn1)C(=O)N2 [10725/D11]	-12.5	23.2
Cc1c(Br)ccc2c1C(=Cc1cc(O)c3c(c1O)CCCC3)C(=O)N2 [10726/C07]	40.8	-67.7
CNS(=O)(=O)c1ccc2c(c1)C(=Cc1[nH]c(Cl)c(CC(=O)OC)c1C(=O)OC)C(=O)N2 [10725/D09]	4.3	35.6
Cc1ccc(C=C2C(=O)Nc3ccc(S(=O)(=O)N4CCOCC4)cc32)o1 [10725/F04]	-49.6	-4.6
O=CN1CCN(c2ccc(C=C3C(=O)Nc4ccc(S(=O)(=O)Nc5ccc(C(F)(F)F)cc5)cc43)cc2)CC1 [10725/E07]	12.5	28.9
O=C1Nc2ccc(CCCl)cc2C1=Cc1ccc(N2CCOCC2)cc1 [10725/G08]	-13.7	8.3
Cc1cc(C=C2C(=O)Nc3ccc(CCCl)cc32)[nH]n1 [10725/G05]	68.7	7.4
COc1cc(C)cc(O)c1C=C1C(=O)Nc2ccc(CCCl)cc21 [10725/G06]	-19.9	27.5
O=C1Nc2ccc(S(=O)(=O)Nc3ccc(C(F)(F)F)cc3)cc2C1=Cc1sccc1Br [10725/E02]	4.3	-8.9
O=C1Nc2c(Br)cc(Br)cc2C1=Cc1ccc(Br)o1 [10726/A05]	-28.4	22.1
O=CN1CCN(c2ccc(C=C3C(=O)Nc4ccc(S(=O)(=O)N5CCOCC5)cc43)cc2)CC1 [10725/F07]	16.4	15.0
CCOC(=O)c1[nH]c(C=C2C(=O)Nc3c(Br)cc(Br)cc32)c(C(=O)OC)c1C [10726/A03]	-12.5	4.3
CCOC(=O)c1[nH]c(C=C2C(=O)Nc3ccc(Br)c(C)c32)c(C(=O)OC)c1C [10726/C03]	29.8	28.4
O=C1Nc2ccc(S(=O)(=O)N3CCOCC3)cc2C1=Cc1c(Br)cnn1-c1ccc(Cl)cc1 [10725/F10]	3.7	17.9
O=C1Nc2ccc(CCCl)cc2C1=Cc1c[nH]cn1 [10725/G11]	-32.4	22.2
Cc1cn(C)cc1C=C1C(=O)Nc2ccc(Br)c(C)c21 [10726/C06]	-0.9	36.0
